Patent publication US8282909B2, “Pharmaceutical composition for topical application of poorly soluble compounds” (Intendis GmbH, priority 2007, dated 2012)

Assay: Solubility of the active substance in solvents and vehicles
Assay type: physicochemical
Description: Topically administered active substances are mainly used to treat the redness, swelling, itching and discomfort of psoriasis, atopic dermatitis and other pathologies of the skin. […] Glucocorticosteroids, steroids, calcineurin inhibitors, vitamin D analoques, retinoids, immunosuppressants, antimycotics, antiinfectives, estrogens, androgens, fumaric acid esters are typical drug classes for topical administration with such low water solubility. Other examples for such poorly soluble compounds are provided e.g. in WO 03/082827 or WO 2006/050998. One example is the non-steroidal active substance having the chemical name (R)-1,1,1-Trifluoro-4-(5-fluoro-2,3-dihydrobenzofuran-7-yl)-4-methyl-2-{[(2-methyl-5-quinolyl)amino]methyl}pentan-2-ol, the empirical formula of which is C25H26F4N2O2, having a molecular weight of 462.5. This is the compound according to example 1 of WO 2006/050998 (hereinafter Ex1/998).

solubility in ethyl alcohol (ethyl alcohol): moderately soluble
solubility in hexane (hexane): only slightly soluble
solubility in standard cream and ointment vehicles (vehicles for topical administration, such as petrolatum and mineral oils): very poor solubility
solubility in water (water): insoluble
SMILES: Cc1ccc2c(NC[C@](O)(CC(C)(C)c3cc(F)cc4c3OCC4)C(F)(F)F)cccc2n1 [Ex1/998, (R)-1,1,1-Trifluoro-4-(5-fluoro-2,3-dihydrobenzofuran-7-yl)-4-methyl-2-{[(2-methyl-5-quinolyl)amino]methyl}pentan-2-ol]
